Assay results from ChEMBL document CHEMBL5052844, “Heteroaryl amides useful as kif18a inhibitors” (2020).

Biological target: T1, Kinesin-like protein KIF18A (Homo sapiens, UniProt Q8NI77)
T1 sequence (Q8NI77 whole entry): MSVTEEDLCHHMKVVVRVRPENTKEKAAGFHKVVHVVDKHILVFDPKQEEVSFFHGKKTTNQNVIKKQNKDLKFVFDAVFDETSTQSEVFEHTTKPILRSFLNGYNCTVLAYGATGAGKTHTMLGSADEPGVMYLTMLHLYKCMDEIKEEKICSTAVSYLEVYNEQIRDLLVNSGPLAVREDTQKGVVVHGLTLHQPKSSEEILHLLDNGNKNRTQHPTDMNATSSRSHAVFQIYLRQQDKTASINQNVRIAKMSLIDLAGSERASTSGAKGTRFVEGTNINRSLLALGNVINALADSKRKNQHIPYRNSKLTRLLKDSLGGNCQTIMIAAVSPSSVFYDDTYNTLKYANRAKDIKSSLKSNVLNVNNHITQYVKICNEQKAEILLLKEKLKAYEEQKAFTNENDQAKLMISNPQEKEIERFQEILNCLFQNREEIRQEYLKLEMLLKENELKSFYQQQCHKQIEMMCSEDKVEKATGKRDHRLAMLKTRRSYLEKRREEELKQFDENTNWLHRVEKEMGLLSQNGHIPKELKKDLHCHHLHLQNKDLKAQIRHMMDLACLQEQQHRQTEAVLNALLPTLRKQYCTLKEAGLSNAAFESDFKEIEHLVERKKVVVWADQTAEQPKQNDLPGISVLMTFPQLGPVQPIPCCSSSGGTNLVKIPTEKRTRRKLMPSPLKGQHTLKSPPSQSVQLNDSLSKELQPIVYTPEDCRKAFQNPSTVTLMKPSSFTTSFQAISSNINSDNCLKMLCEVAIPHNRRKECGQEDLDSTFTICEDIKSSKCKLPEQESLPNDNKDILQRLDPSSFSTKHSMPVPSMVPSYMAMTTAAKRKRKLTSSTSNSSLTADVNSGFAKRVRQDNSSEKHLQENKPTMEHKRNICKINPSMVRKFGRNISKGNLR
Test: Inhibition of recombinant His-tagged human KIF18A (1 to 467 residues) expressed in baculovirus expression system assessed as inhibition of microtubule-stimulated ATPase activity preincubated for 15 mins followed by ATP addition and further incubated for 15 mins and measured after 40 mins by ADP-Glo reagent based assay

Q: How did the IC50 turn out when `Cc1cc(NC(=O)c2cnc(S(=O)(=O)C3CC3)cc2N2CCC3(CC2)CC3)nc(N2CCC(F)(F)CC2)n1` was run?
A: 48 nM
